Here are results for one compound from publication PMC12655579, “Cocrystallization of Ezetimibe with Organic Acids: Stoichiometric Optimization for Improved Solubility and Bioavailability” (Pharmaceutics, 2025).

Series [1] in a line: In vitro dissolution (USP apparatus II, paddle). The note with it: 0.45% w/v SLS in 0.05 M acetate buffer pH 4.5, 37 °C. Format: physicochemical. On the procedure: The samples were mixed in a 5 mL tube with 2 mL of the solvent at a concentration of 1 mg/mL using a multi-mixer (SLRM-3, Seoulin Biosciences, Pangyo, Republic of Korea) for 48 h at 25 °C. The mixtures were then centrifuged at 13,000 rpm for 10 min (Eppendorf 5425R, Hamburg, Germany) and manually filtered using a 0.45 μm polytetrafluoroethylene (PTFE-H) syringe filter. The absorbance of the filtered samples at 233 nm was measured using a UV-VIS spectrophotometer. Similarly, dissolution was assessed using the USP dissolution apparatus II (paddle) (Varian 705 DS, Cary, NC, USA) at 50 rpm in 500 mL of 0.45% w/v SLS in 0.05 M acetate buffer (pH 4.5) at 37 ± 0.5 °C. The cocrystal samples (equivalent to 10 mg ezetimibe) were weighed and added into the dissolution vessel (n = 3). Aliquots were collected at predetermined time points: 5 min, 10 min, 15 min, 30 min, 45 min, 60 min, 90 min, and 120 min. The displaced volume was replenished with fresh buffer after each sampling. The collected samples were filtered through a 0.45 µm RC syringe filter and subjected to UV-VIS spectrophotometer.

Series [2] is described as follows: In vivo pharmacokinetics after single oral gavage. Particulars: rat, male Sprague Dawley rats, fasted, plasma, table prints dose 10 mg/kg for all groups (methods: CRYS101 10 mg/kg, CRYS102-104 30 mg/kg). The procedure:
The stock standard solution was prepared by dissolving ezetimibe at 0.5 mg/mL in 40% MeOH. The absorbance of the standards was measured at 233 nm using UV-VIS spectrophotometer (Optizen pop, Mecasys®, Seoul, Republic of Korea). The bioanalysis was performed using validated LC-MS/MS methods with MRM detection (details in Supplementary Materials). The method was developed using an Agilent 1290 Infinity II BioLC system coupled with an Agilent 6495D Triple-Quadrupole mass spectrometer, employing electrospray ionization (ESI). Chromatographic separation was achieved on a Kintex C18 column (2.6 μm, 100 × 3 mm) maintained at 30 °C, using an isocratic mobile phase of water-acetonitrile (20:80 v/v) at 0.25 mL/min flow rate. The run time was optimized to 5 min with a 2 μL injection volume. Mass spectrometric detection utilized multiple reaction monitoring (MRM) in negative polarity mode for ezetimibe ([M − H]^− m/z 408.1 → 271.1) and positive mode for the internal standard itraconazole ([M + H]^+ m/z 705.2 → 391.6). Detailed description is included in the Supplementary Materials.
In vivo pharmacokinetic profile of ezetimibe cocrystal formulations was assessed in male Sprague Dawley rats (n = 4 per group, 7–8-week-old, mean weight 271.1 g). The SD rats were obtained from G-Bio (Gwangju, Republic of Korea). They were maintained under a 12 h light/dark cycle and provided with free access to food and water. The animal experimental protocol was approved by the Institutional Animal Care and Use Committee (IACUC) of Mokpo National University (Mokpo, Republic of Korea; approval no. MNU-IACUC-2025-015).
The rats were fasted overnight before oral administration, and four formulation groups received single oral doses through gavage: Group 1 (CRYS101) at 10 mg/kg and Groups 2–4 (CRYS102-104) at 30 mg/kg. Blood samples (200 μL) were collected from the femoral artery at predetermined time points after the administration. The collected samples were centrifuged at 16,000× g for 5 min at 4 °C, and the plasma was stored at −70 °C until analysis. The plasma samples analyzed using a validated UPLC-MS/MS method with 1 ng/mL lower quantification limit.

Each structure is given as a SMILES string.

`O=C1[C@H](CC[C@H](O)c2ccc(F)cc2)[C@@H](c2ccc(O)cc2)N1c1ccc(F)cc1` [Ezetimibe]: the “In vitro release at 120 min” value in series [1] worked out at 45%. For the same compound, the AUC(0-inf) (in general, the area under the concentration-time curve extrapolated to infinity) in series [2] (SD not determined) worked out at 41.8 ng·h/mL. Also, in series [2] (n = 4/group, mean ± SD), the AUC(0-t) (usually exposure summed from dosing to a finite time, without extrapolation to infinity) is 11 ± 8.63 ng·h/mL; the highest level (Cmax) was 6.73 ± 4.29 ng/mL; the Tmax (as a rule, the time at which the peak concentration occurs) is 1.33 ± 0.76 h.
